Patent publication US12606816B2, “Inhibitory T cell receptor peptides and discovery methods” (JANUX THERAPEUTICS, INC., priority 2018, dated 2026)

These substances were tested on MAGE-A3 TCR (assay: not given). Conditions: read-out: ELISA | EC50 | uM.

Going from “GGVSCKDVYDEAFCWTGGGGS[PEG4]Lys(biotin)- NH2” to “GGSACSRIYDFAFCHTGGGGS[PEG4]Lys(biotin)- NH2”, the EC50 rises from 0.01 µM to 0.33 µM (33-fold).

Going from “GGCSWIFDGLRYFSKCGGGGS[PEG4]Lys(biotin)- NH2” to VRTWFEKFPELVGGGGS[PEG4]Lys(biotin)-NH2, the EC50 rises from 0.15 µM to 0.67 µM (4.5-fold).

LVWGCIWDDMCSGGGGS[PEG4]Lys(biotin)-NH2 and “GGHCFVSPASGEWWCVGGGGS[PEG4]Lys(biotin)- NH2” are within 1.5-fold of each other in EC50: 0.1 µM for the first, 0.08 µM for the second.

Compared with “GGSLCSLVYDQDFCESGGGGS[PEG4]Lys(biotin)- NH2”, “GGRRCVDVYDNAFCLIGGGGS[PEG4]Lys(biotin)- NH2” is 1.6-fold higher in EC50: 0.16 µM for the first, 0.25 µM for the second.

Compared with “GGESCQSVYDSSFCYDGGGGS[PEG4]Lys(biotin)- NH2”, “GGRICEEVYDWIFCESGGGGS[PEG4]Lys(biotin)- NH2” is 3.1-fold higher in EC50: 0.1 µM for the first, 0.31 µM for the second.

“GGNSCSLVYDKAFCLFGGGGS[PEG4]Lys(biotin)- NH2” and “GGTFCYFDHGLVNCQWGGGGS[PEG4]Lys(biotin)- NH2” are within 1.5-fold of each other in EC50: 0.43 µM for the first, 0.5 µM for the second.

Going from “GGNACEMTYDHTFCDPGGGGS[PEG4]Lys(biotin)- NH2” to “GGNQCWEVYDQEFCSLGGGGS[PEG4]Lys(biotin)- NH2”, the EC50 falls from 0.17 µM to 0.05 µM (3.4-fold). The second is the more potent here.

For “GGTSCAQIYDFEFCYSGGGGS[PEG4]Lys(biotin)- NH2”, the EC50 was 0.17 µM.

What follows are substances tested on Mage-A3 sTCR (assay: kdis (1/s)). Conditions: not given.
Excerpt: Table printed on a drawing sheet, FIG. 4B
Head of the field: kdis (1/s)

In the case of VSCKDVYDEAFCW [Inhibitory peptide 1], the “kdis” value is reported as 0.0282 s⁻¹.

These substances were tested on HIV TCR (assay: not given). Conditions: read-out: ELISA | EC50 | uM.

“GGGTCFHGNTYFLCEDGGGGS[PEG4]Lys(biotin)- NH2” and “GGIECYPGFWALDCLYGGGGS[PEG4]Lys(biotin)- NH2” are within 1.5-fold of each other in EC50: 0.29 µM for the first, 0.43 µM for the second.

Going from “GGQTCIADNVYYLCPEGGGGS[PEG4]Lys(biotin)- NH2” to “GGVTCSLGNVFYLCHDGGGGS[PEG4]Lys(biotin)- NH2”, the EC50 falls from 0.82 µM to 0.39 µM (2.1-fold).

First: GGQLCPEGYYALMCTDGGGGS[PEG4]Lys(biotin)- NH2
Second: GGLTCSSQNIYYLCSDGGGGS[PEG4]Lys(biotin)- NH2
The EC50 of the first is 2.7-fold lower: 0.15 µM for the first, 0.4 µM for the second. The first is the more potent here.

“GGTTCLEGGVYFLCADGGGGS[PEG4]Lys(biotin)- NH2” and “GGFTCVDGQVYYLCDSGGGGS[PEG4]Lys(biotin)- NH2” are within 1.5-fold of each other in EC50: 0.74 µM for the first, 0.69 µM for the second.

“GGLVCNDGNIWWLCEDGGGGS[PEG4]Lys(biotin)- NH2” and “GGVTCNDGKIFYLCSDGGGGS[PEG4]Lys(biotin)- NH2” are within 1.5-fold of each other in EC50: 0.88 µM for the first, 0.63 µM for the second.

Going from “GGMLCNEGYWALSCFLGGGGS[PEG4]Lys(biotin)- NH2” to “GGATCHLDNVYFLCDIGGGGS[PEG4]Lys(biotin)- NH2”, the EC50 falls from 0.69 µM to 0.34 µM (2-fold). The second is the more potent here.

Going from “GGVICTADGVYWLCDLGGGGS[PEG4]Lys(biotin)- NH2” to “GGSNCYSLEPWIYCDTGGGGS[PEG4]Lys(biotin)- NH2”, the EC50 falls from 1.29 µM to 0.5 µM (2.6-fold). The second is the more potent here.

Compared with “GGLVCNDGVVFWLCDSGGGGS[PEG4]Lys(biotin)- NH2”, “GGAFCVDTKPGLVCFEGGGGS[PEG4]Lys(biotin)- NH2” is 3.1-fold lower in EC50: 0.81 µM for the first, 0.26 µM for the second. The second is the more potent here.

These substances were tested against HIV pMHC binding to anti-HIV TCR (assay: not given). Conditions: read-out: ELISA | IC50 | uM.

Substance “GGAFCVDTKPGLVCFEGGGGS[PEG4]Lys(biotin)- NH2” has an IC50 of 112 µM.

The substances below were run on MAGE-A3 TCR / MAGE-A3 pMHC (assay: not given). Conditions: read-out: ELISA | IC50 | uM.

Compared with “GGVSCKDVYDEAFCWTGGGGS[PEG4]Lys(biotin)- NH2”, LVWGCIWDDMCSGGGGS[PEG4]Lys(biotin)-NH2 is higher in IC50: 0.6 µM for the first, > 100 µM for the second.

For “GGHCFVSPASGEWWCVGGGGS[PEG4]Lys(biotin)- NH2”, the IC50 was > 100 µM.

These substances were tested on gp100 TCR (assay: not given). Conditions: read-out: ELISA | EC50 | uM.

First: GGLCRAVEDMWVTSCMGGGGS[PEG4]Lys(biotin)-NH2
Second: GGCHWEHVWGAGSFFCGGGGS[PEG4]Lys(biotin)-NH2
The EC50 of the first is 3.2-fold higher: 4.04 µM for the first, 1.26 µM for the second.

First: GGYCPLSYSQYDSPCYGGGGS[PEG4]Lys(biotin)-NH2
Second: GGDICQWVRSMTECSWGGGGS[PEG4]Lys(biotin)-NH2
The EC50 of the first is 1.7-fold lower: 0.1 µM for the first, 0.17 µM for the second.

Compared with “GGICYDYMSGYDVVCMGGGGS[PEG4]Lys(biotin)-NH2”, “GGYCYYDIDLDQFLCNGGGGS[PEG4]Lys(biotin)-NH2” is 2.1-fold higher in EC50: 0.11 µM for the first, 0.23 µM for the second. The first is the more potent here.

Going from “GGFCRYVRYEFWDLCMGGGGS[PEG4]Lys(biotin)-NH2” to “GGYDCNYDPSSHTCFYGGGGS[PEG4]Lys(biotin)-NH2”, the EC50 falls from 0.54 µM to 0.12 µM (4.5-fold). The second is the more potent here.

“GGHCYDTHSFPMYVCLGGGGS[PEG4]Lys(biotin)-NH2” showed an EC50 of 2.58 µM.
